Assay results reported in US9949995B2, “Compositions and methods of treating of bacterial infections with β-lactamase inhibitors” (priority 2015, dated 2018).
One block for each molecule: values may come before it.

How the values were obtained:
ADC-7 = ADC-7 (Acinetobacter baumannii, UniProt Q6DRA1); experiment: IC50 assay, nitrocefin hydrolysis, ADC-7 (SBL); assay type: biochemical; conditions: nitrocefin 50 μM, 5 min pre-incubation at 25° C.; 10 mM phosphate-buffered saline, pH 7.4
Protocol: (§1) IC50 assays were performed to determine compound ability to inhibit enzyme.

VIM-24 = VIM-24 (Escherichia coli, UniProt Q5U7L7, R205L); experiment: IC50 assay, nitrocefin hydrolysis, VIM-24 (MBL); assay type: biochemical
Protocol: as §1

NDM-1 = NDM-1 (Klebsiella pneumoniae, UniProt C7C422); experiment: IC50 assay, nitrocefin hydrolysis, NDM-1 (MBL); assay type: biochemical; conditions: nitrocefin 50 μM, 5 min pre-incubation at 25° C.; 10 mM HEPES pH 7.5, 200 mM NaCl, 50 uM Zn2SO4, 50 ug/ml BSA
Protocol: as §1

KPC-2 = KPC-2 (Klebsiella pneumoniae, UniProt Q9F663); experiment: IC50 assay, nitrocefin hydrolysis, KPC-2 (SBL); assay type: biochemical; conditions: nitrocefin 50 μM, 5 min pre-incubation at 25° C.; 10 mM phosphate-buffered saline, pH 7.4
Protocol: as §1

PDC-3 = PDC-3 (Pseudomonas aeruginosa, UniProt P24735, T105A); experiment: IC50 assay, nitrocefin hydrolysis, PDC-3 (SBL); assay type: biochemical
Protocol: as §1

VIM-2 = VIM-2 (Escherichia coli, UniProt Q5U7L7); experiment: IC50 assay, nitrocefin hydrolysis, VIM-2 (MBL); assay type: biochemical; conditions: nitrocefin 50 μM, 5 min pre-incubation at 25° C.; 10 mM HEPES pH 7.5, 200 mM NaCl, 50 uM Zn2SO4, 50 ug/ml BSA
Protocol: as §1

OXA-23 = OXA-23 (Acinetobacter baumannii, UniProt Q9L4P2); experiment: IC50 assay, nitrocefin hydrolysis, OXA-23 (SBL); assay type: biochemical; conditions: nitrocefin 50 μM, 5 min pre-incubation at 25° C.; 50 mM Na Phosphate buffer, pH 7.2, 20 mM Na bicarbonate
Protocol: as §1

IMP-1 = IMP-1 (Serratia marcescens, UniProt P52699); experiment: IC50 assay, nitrocefin hydrolysis, IMP-1 (MBL); assay type: biochemical; conditions: nitrocefin 50 μM, 5 min pre-incubation at 25° C.; 10 mM HEPES pH 7.5, 200 mM NaCl, 50 uM Zn2SO4, 50 ug/ml BSA
Protocol: as §1

KPC-2, sequence (Q9F663 25-293, looked up): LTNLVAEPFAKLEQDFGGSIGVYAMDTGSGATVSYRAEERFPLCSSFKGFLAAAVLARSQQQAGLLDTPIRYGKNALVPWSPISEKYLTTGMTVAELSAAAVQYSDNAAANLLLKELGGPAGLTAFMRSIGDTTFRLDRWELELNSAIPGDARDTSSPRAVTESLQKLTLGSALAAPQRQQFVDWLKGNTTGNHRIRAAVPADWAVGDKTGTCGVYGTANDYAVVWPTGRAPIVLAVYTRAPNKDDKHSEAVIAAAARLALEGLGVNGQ
IMP-1, sequence (P52699 19-246, looked up): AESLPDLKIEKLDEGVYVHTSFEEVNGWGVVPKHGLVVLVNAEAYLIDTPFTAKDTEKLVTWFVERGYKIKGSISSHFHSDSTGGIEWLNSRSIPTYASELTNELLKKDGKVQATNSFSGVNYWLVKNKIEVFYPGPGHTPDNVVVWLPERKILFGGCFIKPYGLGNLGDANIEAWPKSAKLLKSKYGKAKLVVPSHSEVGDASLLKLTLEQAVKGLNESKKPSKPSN
NDM-1, sequence (C7C422 29-270, looked up): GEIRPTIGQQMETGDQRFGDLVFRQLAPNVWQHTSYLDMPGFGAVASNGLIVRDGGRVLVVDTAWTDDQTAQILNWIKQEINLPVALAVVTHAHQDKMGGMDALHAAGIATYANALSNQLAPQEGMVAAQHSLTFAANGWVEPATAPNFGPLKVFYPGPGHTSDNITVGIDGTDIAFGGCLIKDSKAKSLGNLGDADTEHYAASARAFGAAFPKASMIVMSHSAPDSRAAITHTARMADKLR
PDC-3, sequence (P24735 27-397 T105A): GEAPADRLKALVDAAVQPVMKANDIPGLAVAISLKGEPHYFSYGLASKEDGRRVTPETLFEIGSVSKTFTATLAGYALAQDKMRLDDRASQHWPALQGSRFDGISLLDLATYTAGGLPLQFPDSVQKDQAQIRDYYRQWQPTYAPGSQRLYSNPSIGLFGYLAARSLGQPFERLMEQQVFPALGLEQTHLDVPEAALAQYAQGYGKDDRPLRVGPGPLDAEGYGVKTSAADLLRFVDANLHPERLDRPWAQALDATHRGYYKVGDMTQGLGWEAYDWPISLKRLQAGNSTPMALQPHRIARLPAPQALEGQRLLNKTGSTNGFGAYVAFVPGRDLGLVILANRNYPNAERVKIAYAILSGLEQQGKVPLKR
OXA-23, sequence (Q9L4P2 18-273): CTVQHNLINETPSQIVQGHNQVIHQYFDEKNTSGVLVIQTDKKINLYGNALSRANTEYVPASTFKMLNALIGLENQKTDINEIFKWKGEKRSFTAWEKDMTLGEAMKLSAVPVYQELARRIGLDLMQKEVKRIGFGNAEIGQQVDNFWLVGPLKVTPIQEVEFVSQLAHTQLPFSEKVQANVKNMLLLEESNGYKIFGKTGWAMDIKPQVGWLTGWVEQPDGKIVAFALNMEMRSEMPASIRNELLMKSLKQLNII

melting point: 151 to 153 °C (dec.)
Compound: OB(O)[C@H](Cc1ccccc1)n1cc(-c2ccccc2)nn1

melting point: 123 to 125 °C (dec.)
Compound: CCOC(=O)c1cn(CB(O)O)nn1

Compound: O=C(NCc1cn(CB(O)O)nn1)c1ccccc1 [Cmp 1c]
IC50 (ADC-7): 23 ± 3 µM
IC50 (VIM-24): > 100 µM
IC50 (NDM-1): > 100 µM
IC50 (KPC-2): 10.8 ± 1.5 µM
IC50 (PDC-3): 26 ± 3 µM
IC50 (VIM-2): 55 ± 5 µM
IC50 (OXA-23): > 100 µM
IC50 (IMP-1): > 100 µM

melting point: 120 to 122 °C (dec.)
Compound: O=C(O)c1cn([C@@H](Cc2ccccc2)B(O)O)nn1

Compound: O=C(Cc1ccccc1)NCc1cn(CB(O)O)nn1 [Cmp 1d]
IC50 (ADC-7): 39 ± 4 µM
IC50 (VIM-24): > 100 µM
IC50 (NDM-1): > 100 µM
IC50 (KPC-2): 12 ± 1 µM
IC50 (PDC-3): 23 ± 3 µM
IC50 (VIM-2): 92 ± 9 µM
IC50 (OXA-23): > 100 µM
IC50 (IMP-1): > 100 µM

melting point: 88 to 90 °C (dec.)
Compound: O=C(O)c1cccc(C[C@@H](B(O)O)n2cc(-c3ccccc3)nn2)c1

melting point: 113 to 115 °C (dec.)
Compound: OB(O)[C@H](Cc1ccccc1)n1cc(COc2ccccc2)nn1

melting point: 141 to 143 °C (dec.)
Compound: OB(O)[C@H](Cc1ccccc1)n1cc(-c2ccsc2)nn1

melting point: 185 to 187 °C (dec.)
Compound: O=C(O)c1cccc(C[C@@H](B(O)O)n2cc(-c3ccsc3)nn2)c1

Compound: Cc1ccc(S(=O)(=O)NCc2cn(CB(O)O)nn2)cc1 [Cmp 1a]
IC50 (ADC-7): 24 ± 3 µM
IC50 (VIM-24): > 100 µM
IC50 (NDM-1): > 100 µM
IC50 (KPC-2): 1.3 ± 0.1 µM
IC50 (PDC-3): 9 ± 1 µM
IC50 (VIM-2): > 100 µM
IC50 (OXA-23): > 100 µM
IC50 (IMP-1): > 100 µM

melting point: 122 to 124 °C (dec.)
Compound: OB(O)Cn1cc(-c2ccccc2)nn1

melting point: 128 to 131 °C (dec.)
Compound: OB(O)Cn1cc(COc2ccccc2)nn1

melting point: 108 to 110 °C (dec.)
Compound: CCOC(=O)c1cn([C@@H](Cc2cccc(C(=O)O)c2)B(O)O)nn1

melting point: 170 to 172 °C (dec.)
Compound: OB(O)Cn1cc(-c2ccsc2)nn1

Compound: O=C(NCc1cn(CB(O)O)nn1)Nc1ccccc1 [Cmp 1e]
IC50 (ADC-7): 14 ± 2 µM
IC50 (VIM-24): > 100 µM
IC50 (NDM-1): > 100 µM
IC50 (KPC-2): 5.2 ± 0.2 µM
IC50 (PDC-3): 10 ± 1 µM
IC50 (VIM-2): 39 ± 4 µM
IC50 (OXA-23): > 100 µM
IC50 (IMP-1): > 100 µM
